Columns and labels:
[1] = (§1) Antimicrobial activity against Salmonella enterica serotype Stanley isolate AM04864 expressing armA rRNA methyltransferase gene by broth microdilution method; assay type: functional, Salmonella enterica subsp. enterica serovar Stanley
[2] = (§2) Antimicrobial activity against Salmonella enterica serotype Virchow isolate AM23818 expressing rmtC rRNA methyltransferase gene by broth microdilution method; assay type: functional, Salmonella enterica subsp. enterica serovar Virchow
[3] = tested on: Salmonella enterica subsp. enterica serovar Stanley; assay: as §1; assay type: functional
[4] = tested on: Salmonella enterica subsp. enterica serovar Virchow; assay: as §2; assay type: functional

Row | Molecule | MIC [1] | MIC [2] | MIC [3] | MIC [4]
1 | NCC[C@H](O)C(=O)N[C@@H]1C[C@H](N)[C@@H](O[C@H]2O[C@H](CN)[C@@H](O)[C@H](O)[C@H]2O)[C@H](O)[C@H]1O[C@H]1O[C@H](CO)[C@@H](O)[C@H](N)[C@H]1O [AMIKACIN] | > 64 µg/mL | > 64 µg/mL |  | 
2 | NC[C@H]1O[C@H](O[C@H]2[C@H](O)[C@@H](O[C@H]3O[C@H](CO)[C@@H](O)[C@H](N)[C@H]3O)[C@H](N)C[C@@H]2N)[C@H](O)[C@@H](O)[C@@H]1O [KANAMYCIN] | > 64 µg/mL | > 64 µg/mL |  | 
3 | GENTAMICIN |  |  | > 16 µg/mL | > 16 µg/mL

Reference: ChEMBL document CHEMBL1649210, “Identification of the aminoglycoside resistance determinants armA and rmtC among non-Typhi Salmonella isolates from humans in the United States” (2009)
